Among the data in US20250152585A1, “PHARMACEUTICAL COMPOUND” (Duke Street Bio Limited, priority 2022, published 2025) are IC50, Selectivity and Kd values, retold here.

For the first assay, the target named is T1, full length N-terminally FLAG-tagged PARP1 (Homo sapiens, UniProt P09874). Nature of the assay: PARP1 biochemical DELFIA assay (auto-PARylation). The arrangement: recombinant full length human N-terminally FLAG-tagged PARP1. The settings on record: binned IC50, PARP1 biochemical DELFIA assay.
T1 sequence (P09874 whole entry): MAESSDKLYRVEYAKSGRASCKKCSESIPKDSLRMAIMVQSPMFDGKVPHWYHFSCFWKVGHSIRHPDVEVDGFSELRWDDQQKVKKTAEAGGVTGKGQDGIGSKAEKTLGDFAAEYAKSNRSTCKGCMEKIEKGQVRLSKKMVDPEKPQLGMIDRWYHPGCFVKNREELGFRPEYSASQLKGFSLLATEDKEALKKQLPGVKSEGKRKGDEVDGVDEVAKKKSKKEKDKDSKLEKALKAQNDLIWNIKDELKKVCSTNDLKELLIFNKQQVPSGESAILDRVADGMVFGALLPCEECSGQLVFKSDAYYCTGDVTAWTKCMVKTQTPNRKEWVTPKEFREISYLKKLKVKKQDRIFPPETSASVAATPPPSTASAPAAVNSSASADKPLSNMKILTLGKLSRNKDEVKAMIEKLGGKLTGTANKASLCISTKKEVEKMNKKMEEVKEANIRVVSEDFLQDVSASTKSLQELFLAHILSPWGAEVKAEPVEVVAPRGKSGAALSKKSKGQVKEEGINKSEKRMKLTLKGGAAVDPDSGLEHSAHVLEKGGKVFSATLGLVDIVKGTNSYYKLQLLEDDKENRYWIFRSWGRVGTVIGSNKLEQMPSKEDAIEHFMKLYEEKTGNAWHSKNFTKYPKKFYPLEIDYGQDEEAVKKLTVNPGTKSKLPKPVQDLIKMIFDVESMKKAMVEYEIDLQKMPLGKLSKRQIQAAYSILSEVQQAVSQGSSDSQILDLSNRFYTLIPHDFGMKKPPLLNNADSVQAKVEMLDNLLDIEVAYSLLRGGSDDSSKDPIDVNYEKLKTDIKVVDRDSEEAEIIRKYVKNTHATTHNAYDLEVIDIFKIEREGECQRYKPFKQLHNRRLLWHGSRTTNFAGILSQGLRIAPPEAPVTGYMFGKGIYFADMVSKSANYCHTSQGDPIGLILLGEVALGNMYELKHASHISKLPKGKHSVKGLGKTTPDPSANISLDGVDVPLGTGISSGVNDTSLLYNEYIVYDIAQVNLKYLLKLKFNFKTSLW
As usually defined, the IC50 is the midpoint of a concentration-inhibition curve. For the compound `O=C(NCCF)c1ccc(N2CCC(N3CCCC(c4nc5ccccc5c(=O)[nH]4)C3)CC2)cn1` (single isomer, unassigned) [Compound 110b], the IC50 was in the range of 100 to 1000 nM.
Same read-out and setting: for `CCNC(=O)c1ccc(N2CCC(N3CCC(c4nc5ccccc5c(=O)[nH]4)C3)CC2)cn1` (single isomer, unassigned) [Compound 111a] the value was 10 to 100 nM; for `CCNC(=O)c1ccc(N2CCC(N3CCC(c4nc5ccccc5c(=O)[nH]4)C3)CC2)cn1` (single isomer, unassigned) [Compound 111b], less than 10 nM; for `CCc1nc(C(=O)NC)ccc1N1CCC(N2CCCC(c3nc4ccccc4c(=O)[nH]3)C2)CC1` (single isomer, unassigned) [Compound 112a], 100 to 1000 nM.
Still for that read-out and setting: as for `CCc1nc(C(=O)NC)ccc1N1CCC(N2CCCC(c3nc4ccccc4c(=O)[nH]3)C2)CC1` (single isomer, unassigned) [Compound 112b], the figure is 10 to 100 nM.
Still for that read-out and setting: as for `O=c1[nH]c(C2CCCN(C3CCN(c4ccc(F)cc4F)CC3)C2)nc2ccccc12` (single isomer, unassigned) [Compound 113a], the figure is 100 to 1000 nM; as for `O=c1[nH]c(C2CCCN(C3CCN(c4ccc(F)cc4F)CC3)C2)nc2ccccc12` (single isomer, unassigned) [Compound 113b], 100 to 1000 nM; as for `CNC(=O)c1ccc(N2CCC(N3CCCC(c4nc5c(F)cccc5c(=O)[nH]4)C3)CC2)cn1` (single isomer, unassigned) [Compound 114a], less than 10 nM.
On to `CNC(=O)c1ccc(N2CCC(N3CCCC(c4nc5c(F)cccc5c(=O)[nH]4)C3)CC2)cn1` (single isomer, unassigned) [Compound 114b], for which the concentration for half-maximal inhibition (IC50) was 100 to 1000 nM.
Still for that read-out and setting: for `O=C(NCC(F)(F)F)c1ccc(N2CCC(N3CCCC(c4nc5ccccc5c(=O)[nH]4)C3)CC2)cn1` (single isomer, unassigned) [Compound 115a] the value was 100 to 1000 nM; for `O=C(NCC(F)(F)F)c1ccc(N2CCC(N3CCCC(c4nc5ccccc5c(=O)[nH]4)C3)CC2)cn1` (single isomer, unassigned) [Compound 115b], 10 to 100 nM; for `COCCNC(=O)c1ccc(N2CCC(N3CCCC(c4nc5ccccc5c(=O)[nH]4)C3)CC2)cn1` (single isomer, unassigned) [Compound 116a], 10 to 100 nM.
For `COCCNC(=O)c1ccc(N2CCC(N3CCCC(c4nc5ccccc5c(=O)[nH]4)C3)CC2)cn1` (single isomer, unassigned) [Compound 116b], the IC50 lay in the range of 100 to 1000 nM.
Still for that read-out and setting: as for `O=C(NCCF)c1ccc(N2CCC(N3CCC(c4nc5ccccc5c(=O)[nH]4)C3)CC2)cn1` (single isomer, unassigned) [Compound 117a], the figure is 10 to 100 nM.

In a further assay the target is T1, full length N-terminally FLAG-tagged PARP1. Nature of the assay: PARP1 probe displacement HTRF assay. The settings on record: PARP1 over PARP2, ratio Kd (PARP2)/Kd (PARP1), probe displacement HTRF. (In general: TR-FRET usually uses a lanthanide donor and a delayed reading to cut background.)
Take `O=C(NCCF)c1ccc(N2CCC(N3CCCC(c4nc5ccccc5c(=O)[nH]4)C3)CC2)cn1` (single isomer, unassigned) [Compound 110b]: the Selectivity result is on record as “− (− indicates a value of less than 10)”.
The same measure, in the same setting: as for `CCNC(=O)c1ccc(N2CCC(N3CCC(c4nc5ccccc5c(=O)[nH]4)C3)CC2)cn1` (single isomer, unassigned) [Compound 111a], the entry is “+ (+ indicates a value of 10 to less than 50)”; as for `CCNC(=O)c1ccc(N2CCC(N3CCC(c4nc5ccccc5c(=O)[nH]4)C3)CC2)cn1` (single isomer, unassigned) [Compound 111b], “+++ (+++ indicate a value of at least 100)”.
As to `CCc1nc(C(=O)NC)ccc1N1CCC(N2CCCC(c3nc4ccccc4c(=O)[nH]3)C2)CC1` (single isomer, unassigned) [Compound 112a], the Selectivity result is recorded as “− (− indicates a value of less than 10)”.
Same read-out and setting: for `CCc1nc(C(=O)NC)ccc1N1CCC(N2CCCC(c3nc4ccccc4c(=O)[nH]3)C2)CC1` (single isomer, unassigned) [Compound 112b] the value was “+++ (+++ indicate a value of at least 100)”.
Turning to `O=c1[nH]c(C2CCCN(C3CCN(c4ccc(F)cc4F)CC3)C2)nc2ccccc12` (single isomer, unassigned) [Compound 113a], the Selectivity entry was “− (− indicates a value of less than 10)”.
Still for that read-out and setting: as for `O=c1[nH]c(C2CCCN(C3CCN(c4ccc(F)cc4F)CC3)C2)nc2ccccc12` (single isomer, unassigned) [Compound 113b], the entry is “+ (+ indicates a value of 10 to less than 50)”; as for `CNC(=O)c1ccc(N2CCC(N3CCCC(c4nc5c(F)cccc5c(=O)[nH]4)C3)CC2)cn1` (single isomer, unassigned) [Compound 114a], “+++ (+++ indicate a value of at least 100)”; as for `CNC(=O)c1ccc(N2CCC(N3CCCC(c4nc5c(F)cccc5c(=O)[nH]4)C3)CC2)cn1` (single isomer, unassigned) [Compound 114b], “+ (+ indicates a value of 10 to less than 50)”.
Still for that read-out and setting: as for `O=C(NCC(F)(F)F)c1ccc(N2CCC(N3CCCC(c4nc5ccccc5c(=O)[nH]4)C3)CC2)cn1` (single isomer, unassigned) [Compound 115a], the entry is “+ (+ indicates a value of 10 to less than 50)”; as for `O=C(NCC(F)(F)F)c1ccc(N2CCC(N3CCCC(c4nc5ccccc5c(=O)[nH]4)C3)CC2)cn1` (single isomer, unassigned) [Compound 115b], “+++ (+++ indicate a value of at least 100)”; as for `COCCNC(=O)c1ccc(N2CCC(N3CCCC(c4nc5ccccc5c(=O)[nH]4)C3)CC2)cn1` (single isomer, unassigned) [Compound 116a], “+++ (+++ indicate a value of at least 100)”.
Still for that read-out and setting: as for `COCCNC(=O)c1ccc(N2CCC(N3CCCC(c4nc5ccccc5c(=O)[nH]4)C3)CC2)cn1` (single isomer, unassigned) [Compound 116b], the entry is “− (− indicates a value of less than 10)”; as for `O=C(NCCF)c1ccc(N2CCC(N3CCC(c4nc5ccccc5c(=O)[nH]4)C3)CC2)cn1` (single isomer, unassigned) [Compound 117a], “+ (+ indicates a value of 10 to less than 50)”.

The assay is the same for the next values; noted with them: read-out: PARP1 HTRF; binned Kd, PARP1 probe displacement HTRF.
Consider `O=C(NCCF)c1ccc(N2CCC(N3CCCC(c4nc5ccccc5c(=O)[nH]4)C3)CC2)cn1` (single isomer, unassigned) [Compound 110b], for which the Kd fell in the range of 10 to 100 nM.
Same read-out and setting: as for `CCNC(=O)c1ccc(N2CCC(N3CCC(c4nc5ccccc5c(=O)[nH]4)C3)CC2)cn1` (single isomer, unassigned) [Compound 111a], the figure is 10 to 100 nM.
Still for that read-out and setting: for `CCNC(=O)c1ccc(N2CCC(N3CCC(c4nc5ccccc5c(=O)[nH]4)C3)CC2)cn1` (single isomer, unassigned) [Compound 111b] the value was less than 10 nM.
Still for that read-out and setting: for `CCc1nc(C(=O)NC)ccc1N1CCC(N2CCCC(c3nc4ccccc4c(=O)[nH]3)C2)CC1` (single isomer, unassigned) [Compound 112a] the value was 100 to 1000 nM.
For the compound `CCc1nc(C(=O)NC)ccc1N1CCC(N2CCCC(c3nc4ccccc4c(=O)[nH]3)C2)CC1` (single isomer, unassigned) [Compound 112b], the Kd fell in the range of 10 to 100 nM.
The same measure, in the same setting: as for `O=c1[nH]c(C2CCCN(C3CCN(c4ccc(F)cc4F)CC3)C2)nc2ccccc12` (single isomer, unassigned) [Compound 113a], the figure is 100 to 1000 nM; as for `O=c1[nH]c(C2CCCN(C3CCN(c4ccc(F)cc4F)CC3)C2)nc2ccccc12` (single isomer, unassigned) [Compound 113b], 100 to 1000 nM.
The same measure, in the same setting: for `CNC(=O)c1ccc(N2CCC(N3CCCC(c4nc5c(F)cccc5c(=O)[nH]4)C3)CC2)cn1` (single isomer, unassigned) [Compound 114a] the value was less than 10 nM.
For the compound `CNC(=O)c1ccc(N2CCC(N3CCCC(c4nc5c(F)cccc5c(=O)[nH]4)C3)CC2)cn1` (single isomer, unassigned) [Compound 114b], the Kd lay in the range of 100 to 1000 nM.
The same measure, in the same setting: for `O=C(NCC(F)(F)F)c1ccc(N2CCC(N3CCCC(c4nc5ccccc5c(=O)[nH]4)C3)CC2)cn1` (single isomer, unassigned) [Compound 115a] the value was 100 to 1000 nM.
On to `O=C(NCC(F)(F)F)c1ccc(N2CCC(N3CCCC(c4nc5ccccc5c(=O)[nH]4)C3)CC2)cn1` (single isomer, unassigned) [Compound 115b], for which the Kd is 10 to 100 nM.
The same measure, in the same setting: for `COCCNC(=O)c1ccc(N2CCC(N3CCCC(c4nc5ccccc5c(=O)[nH]4)C3)CC2)cn1` (single isomer, unassigned) [Compound 116a] the value was 10 to 100 nM.
Same read-out and setting: as for `COCCNC(=O)c1ccc(N2CCC(N3CCCC(c4nc5ccccc5c(=O)[nH]4)C3)CC2)cn1` (single isomer, unassigned) [Compound 116b], the figure is 100 to 1000 nM; as for `O=C(NCCF)c1ccc(N2CCC(N3CCC(c4nc5ccccc5c(=O)[nH]4)C3)CC2)cn1` (single isomer, unassigned) [Compound 117a], 10 to 100 nM.

The target of a further assay is T2, N-terminally FLAG-tagged PARP2 (amino acids 1-583) (Homo sapiens, UniProt Q9UGN5).
T2 construct: N-terminally FLAG-tagged PARP2 (amino acids 1-583)
T2 sequence (Q9UGN5 whole entry, the tested form may be a part): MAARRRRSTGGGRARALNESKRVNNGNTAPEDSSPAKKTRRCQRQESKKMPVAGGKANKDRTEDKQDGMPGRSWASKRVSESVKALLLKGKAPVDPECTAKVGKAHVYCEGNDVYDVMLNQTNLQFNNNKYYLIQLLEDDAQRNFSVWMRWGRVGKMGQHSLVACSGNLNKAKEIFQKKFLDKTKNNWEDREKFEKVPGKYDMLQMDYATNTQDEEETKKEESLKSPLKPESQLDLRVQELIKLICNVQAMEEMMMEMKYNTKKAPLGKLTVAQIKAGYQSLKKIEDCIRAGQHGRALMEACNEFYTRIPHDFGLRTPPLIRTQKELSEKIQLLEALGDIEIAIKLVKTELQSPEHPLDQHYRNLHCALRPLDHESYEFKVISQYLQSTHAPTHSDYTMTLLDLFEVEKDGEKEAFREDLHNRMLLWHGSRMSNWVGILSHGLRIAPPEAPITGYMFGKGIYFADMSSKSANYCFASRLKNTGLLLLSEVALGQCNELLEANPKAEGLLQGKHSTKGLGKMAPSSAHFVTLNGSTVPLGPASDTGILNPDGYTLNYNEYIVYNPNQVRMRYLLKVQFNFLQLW
Description: PARP2 probe displacement HTRF assay. The format is binding. The note with it: binned Kd, PARP2 probe displacement HTRF. The method, then: Data analysis was performed identical as for PARP1.
In the case of `O=C(NCCF)c1ccc(N2CCC(N3CCCC(c4nc5ccccc5c(=O)[nH]4)C3)CC2)cn1` (single isomer, unassigned) [Compound 110b], the Kd fell in the range of 100 to 1000 nM.
The same measure, in the same setting: for `CCNC(=O)c1ccc(N2CCC(N3CCC(c4nc5ccccc5c(=O)[nH]4)C3)CC2)cn1` (single isomer, unassigned) [Compound 111a] the value was 100 to 1000 nM; for `CCNC(=O)c1ccc(N2CCC(N3CCC(c4nc5ccccc5c(=O)[nH]4)C3)CC2)cn1` (single isomer, unassigned) [Compound 111b], 100 to 1000 nM; for `CCc1nc(C(=O)NC)ccc1N1CCC(N2CCCC(c3nc4ccccc4c(=O)[nH]3)C2)CC1` (single isomer, unassigned) [Compound 112a], 1000 to 10000 nM.
Compound `CCc1nc(C(=O)NC)ccc1N1CCC(N2CCCC(c3nc4ccccc4c(=O)[nH]3)C2)CC1` (single isomer, unassigned) [Compound 112b] returned a Kd greater than 10000 nM.
On the same count and under the same terms, for `O=c1[nH]c(C2CCCN(C3CCN(c4ccc(F)cc4F)CC3)C2)nc2ccccc12` (single isomer, unassigned) [Compound 113a] the value was 100 to 1000 nM.
Consider `O=c1[nH]c(C2CCCN(C3CCN(c4ccc(F)cc4F)CC3)C2)nc2ccccc12` (single isomer, unassigned) [Compound 113b], for which the Kd was greater than 10000 nM.
In turn, `CNC(=O)c1ccc(N2CCC(N3CCCC(c4nc5c(F)cccc5c(=O)[nH]4)C3)CC2)cn1` (single isomer, unassigned) [Compound 114a] came in with a Kd greater than 10000 nM.
The compound `CNC(=O)c1ccc(N2CCC(N3CCCC(c4nc5c(F)cccc5c(=O)[nH]4)C3)CC2)cn1` (single isomer, unassigned) [Compound 114b] registered a Kd of 1000 to 10000 nM.
On the same count and under the same terms, as for `O=C(NCC(F)(F)F)c1ccc(N2CCC(N3CCCC(c4nc5ccccc5c(=O)[nH]4)C3)CC2)cn1` (single isomer, unassigned) [Compound 115a], the figure is 1000 to 10000 nM; as for `O=C(NCC(F)(F)F)c1ccc(N2CCC(N3CCCC(c4nc5ccccc5c(=O)[nH]4)C3)CC2)cn1` (single isomer, unassigned) [Compound 115b], 1000 to 10000 nM.
On the same count and under the same terms, as for `COCCNC(=O)c1ccc(N2CCC(N3CCCC(c4nc5ccccc5c(=O)[nH]4)C3)CC2)cn1` (single isomer, unassigned) [Compound 116a], the figure is greater than 10000 nM; as for `COCCNC(=O)c1ccc(N2CCC(N3CCCC(c4nc5ccccc5c(=O)[nH]4)C3)CC2)cn1` (single isomer, unassigned) [Compound 116b], 1000 to 10000 nM.
Same read-out and setting: as for `O=C(NCCF)c1ccc(N2CCC(N3CCC(c4nc5ccccc5c(=O)[nH]4)C3)CC2)cn1` (single isomer, unassigned) [Compound 117a], the figure is 100 to 1000 nM.
